Data from patent US20100144755A1 (Glaxo Group Limited, priority 2006, published 2010).
Entries after “also recorded” stand apart in the source; their conditions may differ. Structures can show the parent of a compound that is named as a salt.

system: influx of neutrophils to the lung in LPS-challenged rats; assay: Rat LPS neutrophilia model; format: in vivo; conditions: LPS aerosol, intratracheal dosing, in at least one of the range of conditions tested, significance p<0.05
Method: Rat LPS Neutrophilia Model
The effect of compounds on the influx of neutrophils to the lung in LPS-challenged rats is evaluated as follows. The test compound is suspended in one of the following solutions: 0.5% tween 80/PBS, 0.5% tween 80/saline, 10% EtOH/saline (with pH adjusted to 2.0, or 8.0 with HCl, or unadjusted), Saline @pH 2.0, 6.5 or 8.0, 0.5% Tragacanth, 1% DMSO/20% Encapsin/Saline, or acidified 5% Tragacanth. The suspension process may be aided by the use of a glass homogenizer. For intratracheal administration, the animals are anesthetized with inhaled isoflurane and placed in a supine position, the trachea is intubated with a steel gavage needle (1.5 inch, 22 gauge, small ball) or a Penn-Century Microsprayer Aerosolizer (model IA-1B) and 200 ul of dosing solution is delivered. The animals are visually monitored during the recovery process, which typically occurs within two minutes. It is noted that the test compounds may be alternatively administered via the microsprayer in a dry powder blend with a suitable excipient, such as lactose.
Rats treated with compound or vehicle (15 min-24 hours pretreatment) are exposed to an LPS aerosol (100 ug/ml) for 15 min. Four hours later the rats are euthanized with pentobarbital (100 mg/kg, i.p.) and the airways are lavaged with 5 washes of 5 ml of phosphate buffered saline. The harvested cells are stained (Diffquick) and counted to determine total and differential cell data. […] Inhibition of neutrophil levels relative to no compound controls is calculated based on the differential counts.
The data is obtained as % inhibition using a particular concentration and pretreat time.

Row | SMILES | inhibition of neutrophilia
1 | Cc1ccc(NC(=O)c2cccc3cc[nH]c23)cc1-c1nc(NC(CO)CO)nc2c1ccc(=O)n2-c1c(F)cccc1F [Example 44, N-[3-(8-(2,6-difluorophenyl)-2-{[2-hydroxy-1-(hydroxymethyl)ethyl]amino}-7-oxo-7,8-dihydropyrido[2,3-d]pyrimidin-4-yl)-4-methylphenyl]-1H-indole-7-carboxamide trifluoroacetate] | statistically significant inhibition
2 | CCN(CC)CCCNc1nc(-c2cc(C(=O)Nc3ccccc3)ccc2C)c2ccc(=O)n(-c3c(F)cccc3F)c2n1 [Example 147, 3-[2-{[3-(diethylamino)propyl]amino}-8-(2,6-difluorophenyl)-7-oxo-7,8-dihydropyrido[2,3-d]pyrimidin-4-yl]-4-methyl-N-phenylbenzamide] | statistically nonsignificant inhibition
3 | Cc1ccc(C(=O)Nc2nccs2)cc1-c1nc(N(C)CCCN(C)C)nc2c1ccc(=O)n2-c1c(F)cccc1F [Example 107, 3-{8-(2,6-difluorophenyl)-2-[[3-(dimethylamino)propyl](methyl)amino]-7-oxo-7,8-dihydropyrido[2,3-d]pyrimidin-4-yl}-4-methyl-N-1,3-thiazol-2-ylbenzamide] | statistically significant inhibition
4 | Cc1ccc(C(=O)Nc2nccs2)cc1-c1nc(NCc2ncc[nH]2)nc2c1ccc(=O)n2-c1c(F)cccc1F [79(c), 3-{8-(2,6-difluorophenyl)-2-[(1H-imidazol-2-ylmethyl)amino]-7-oxo-7,8-dihydropyrido[2,3-d]pyrimidin-4-yl}-4-methyl-N-1,3-thiazol-2-ylbenzamide] | statistically significant inhibition
5 | Cc1ccc(C(=O)NC2CCC2)cc1-c1nc(N2CCC(N3CCC(C)CC3)CC2)nc2c1ccc(=O)n2-c1c(F)cccc1F [Example 175, N-cyclobutyl-3-[8-(2,6-difluorophenyl)-2-(4-methyl-1,4′-bipiperidin-1′-yl)-7-oxo-7,8-dihydropyrido[2,3-d]pyrimidin-4-yl]-4-methylbenzamide] | inactive
6 | Cc1ccc(C(=O)Nc2ccc(F)cc2)cc1-c1nc(N2CCC(N3CCC(C)CC3)CC2)nc2c1ccc(=O)n2-c1c(F)cccc1F [Example 174, 3-[8-(2,6-difluorophenyl)-2-(4-methyl-1,4′-bipiperidin-1′-yl)-7-oxo-7,8-dihydropyrido[2,3-d]pyrimidin-4-yl]-N-(4-fluorophenyl)-4-methylbenzamide] | inactive
7 | CCNC(=O)c1ccc(C)c(-c2nc(N3CCC(N4CCC(C)CC4)CC3)nc3c2ccc(=O)n3-c2c(F)cccc2F)c1 [Example 173, 3-[8-(2,6-difluorophenyl)-2-(4-methyl-1,4′-bipiperidin-1′-yl)-7-oxo-7,8-dihydropyrido[2,3-d]pyrimidin-4-yl]-N-ethyl-4-methylbenzamide] | statistically significant inhibition
8 | Cc1ccc(C(=O)Nc2nccs2)cc1-c1nc(N2CCC(N)CC2)nc2c1ccc(=O)n2-c1c(F)cccc1F [Example 73, 3-[2-(4-amino-1-piperidinyl)-8-(2,6-difluorophenyl)-7-oxo-7,8-dihydropyrido[2,3-d]pyrimidin-4-yl]-4-methyl-N-1,3-thiazol-2-ylbenzamide] | statistically significant inhibition
9 | Cc1ccc(C(=O)NCC2CC2)cc1-c1nc(N2CCC(N)CC2)nc2c1ccc(=O)n2-c1c(F)cccc1F [Example 27, 3-[2-(4-amino-1-piperidinyl)-8-(2,6-difluorophenyl)-7-oxo-7,8-dihydropyrido[2,3-d]pyrimidin-4-yl]-N-(cyclopropylmethyl)-4-methylbenzamide] | statistically significant inhibition
10 | Cc1ccc(C(=O)NC(C)C)cc1-c1nc(NCCN(C)C)nc2c1ccc(=O)n2-c1c(F)cccc1F [Example 117, 3-(8-(2,6-difluorophenyl)-2-{[2-(dimethylamino)ethyl]amino}-7-oxo-7,8-dihydropyrido[2,3-d]pyrimidin-4-yl)-4-methyl-N-(1-methylethyl)benzamide] | statistically significant inhibition
11 | Cc1ccc(C(=O)NC(C)C)cc1-c1nc(N(C)CCCN(C)C)nc2c1ccc(=O)n2-c1c(F)cccc1F [Example 34, 3-{8-(2,6-difluorophenyl)-2-[[3-(dimethylamino)propyl](methyl)amino]-7-oxo-7,8-dihydropyrido[2,3-d]pyrimidin-4-yl}-4-methyl-N-(1-methylethyl)benzamide] | statistically significant inhibition
12 | CCN(CC)CCCNc1nc(-c2cc(C(=O)NCC3CCCC3)ccc2C)c2ccc(=O)n(-c3c(F)cccc3F)c2n1 [Example 132, N-(cyclopentylmethyl)-3-[2-{[3-(diethylamino)propyl]amino}-8-(2,6-difluorophenyl)-7-oxo-7,8-dihydropyrido[2,3-d]pyrimidin-4-yl]-4-methylbenzamidetrifluoroacetate] | statistically nonsignificant inhibition
13 | Cc1ccc(C(=O)Nc2nccs2)cc1-c1nc(NCCCNC(C)C)nc2c1ccc(=O)n2-c1c(F)cccc1F [Example 101, 3-[8-(2,6-difluorophenyl)-2-({3-[(1-methylethyl)amino]propyl}amino)-7-oxo-7,8-dihydropyrido[2,3-d]pyrimidin-4-yl]-4-methyl-N-1,3-thiazol-2-ylbenzamide] | statistically significant inhibition
14 | CCN(CC)CCCNc1nc(-c2cc(C(=O)N(C)C)ccc2C)c2ccc(=O)n(-c3c(F)cccc3F)c2n1 [Example 120, 3-[2-{[3-(diethylamino)propyl]amino}-8-(2,6-difluorophenyl)-7-oxo-7,8-dihydropyrido[2,3-d]pyrimidin-4-yl]-N,N,4-trimethylbenzamide] | statistically nonsignificant inhibition; also recorded: inactive
15 | Cc1ccc(C(=O)Nc2nccs2)cc1-c1nc(NCCCNC(C)(C)C)nc2c1ccc(=O)n2-c1c(F)cccc1F [Example 102, 3-[8-(2,6-difluorophenyl)-2-({3-[(1,1-dimethylethyl)amino]propyl}amino)-7-oxo-7,8-dihydropyrido[2,3-d]pyrimidin-4-yl]-4-methyl-N-1,3-thiazol-2-ylbenzamide] | statistically nonsignificant inhibition
16 | Cc1ccc(C(=O)Nc2ccc(F)cc2)cc1-c1nc(N2CCC(N)CC2)nc2c1ccc(=O)n2-c1c(F)cccc1F [Example 72, 3-[2-(4-amino-1-piperidinyl)-8-(2,6-difluorophenyl)-7-oxo-7,8-dihydropyrido[2,3-d]pyrimidin-4-yl]-N-(4-fluorophenyl)-4-methylbenzamide] | statistically significant inhibition
17 | Cc1ccc(C(=O)NC2CCCC2)cc1-c1nc(NCc2ncc[nH]2)nc2c1ccc(=O)n2-c1c(F)cccc1F [Example 76, N-cyclopentyl-3-{8-(2,6-difluorophenyl)-2-[(1H-imidazol-2-ylmethyl)amino]-7-oxo-7,8-dihydropyrido[2,3-d]pyrimidin-4-yl}-4-methylbenzamide] | statistically nonsignificant inhibition
18 | Cc1ccc(C(=O)NCc2ccccc2)cc1-c1nc(NCc2ncc[nH]2)nc2c1ccc(=O)n2-c1c(F)cccc1F [Example 77, 3-{8-(2,6-difluorophenyl)-2-[(1H-imidazol-2-ylmethyl)amino]-7-oxo-7,8-dihydropyrido[2,3-d]pyrimidin-4-yl}-4-methyl-N-(phenylmethyl)benzamide] | statistically significant inhibition
19 | Cc1ccc(C(=O)NCC(C)C)cc1-c1nc(N2CCC(N3CCC(C)CC3)CC2)nc2c1ccc(=O)n2-c1c(F)cccc1F [Example 168, 3-[8-(2,6-difluorophenyl)-2-(4-methyl-1,4′-bipiperidin-1′-yl)-7-oxo-7,8-dihydropyrido[2,3-d]pyrimidin-4-yl]-4-methyl-N-(2-methylpropyl)benzamide] | inactive
20 | Cc1ccc(C(=O)Nc2ccc(F)cc2)cc1-c1nc(NCCN(C)C(=O)OC(C)(C)C)nc2c1ccc(=O)n2-c1c(F)cccc1F [Example 95, 1,1-dimethylethyl(2-{[8-(2,6-difluorophenyl)-4-(5-{[(4-fluorophenyl)amino]carbonyl}-2-methylphenyl)-7-oxo-7,8-dihydropyrido[2,3-d]pyrimidin-2-yl]amino}ethyl)methylcarbamate] | statistically nonsignificant inhibition
21 | CCCNC(=O)c1ccc(C)c(-c2nc(N3CCC(N4CCC(C)CC4)CC3)nc3c2ccc(=O)n3-c2c(F)cccc2F)c1 [Example 166, 3-[8-(2,6-difluorophenyl)-2-(4-methyl-1,4′-bipiperidin-1′-yl)-7-oxo-7,8-dihydropyrido[2,3-d]pyrimidin-4-yl]-4-methyl-N-propylbenzamide] | statistically significant inhibition
22 | Cc1ccc(C(=O)Nc2nccs2)cc1-c1nc(NCCNC(C)C)nc2c1ccc(=O)n2-c1c(F)cccc1F [Example 103, 3-[8-(2,6-difluorophenyl)-2-({2-[(1-methylethyl)amino]ethyl}amino)-7-oxo-7,8-dihydropyrido[2,3-d]pyrimidin-4-yl]-4-methyl-N-1,3-thiazol-2-ylbenzamide] | statistically significant inhibition
